Conditions: 101.33 kPa; for speed of sound: Sing-around technique in a fixed-path interferometer; for mass density: Vibrating tube method; for viscosity: 368.15 K, Visco Elite L rheometer

CCCCCCCC/C=C\CCCCCCCC(=O)[O-].OCC[NH2+]CCO [bis(2-hydroxyethyl)ammonium oleate]
Liquid crystal of unknown type
Conditions | mass density [kg/m3] | speed of sound [m/s]
310.91 K | 956.801 | 1479.3
311.16 K | 956.637 | 1478.5
311.41 K | 956.474 | 1477.7
311.66 K | 956.311 | 1476.9
311.91 K | 956.146 | 1476.1
312.16 K | 955.984 | 1475.3
312.41 K | 955.821 | 1474.5
312.66 K | 955.658 | 1473.7
312.91 K | 955.495 | 1472.9
313.16 K | 955.331 | 1472.1
313.4 K | 955.169 | 1471.3
313.66 K | 955.006 | 1470.5
313.91 K | 954.842 | 1469.7
314.16 K | 954.679 | 1468.9
314.41 K | 954.514 | 1468.2
314.66 K | 954.352 | 1467.4
314.91 K | 954.186 | 1466.6
315.16 K | 954.024 | 1465.8
315.41 K | 953.862 | 1465
315.65 K | 953.699 | 1464.2
315.91 K | 953.533 | 1463.4
316.16 K | 953.369 | 1462.7
316.41 K | 953.207 | 1461.9
316.66 K | 953.043 | 1461.1
316.91 K | 952.88 | 1460.3
317.16 K | 952.716 | 1459.5
317.41 K | 952.551 | 1458.8
317.66 K | 952.388 | 1458
317.91 K | 952.225 | 1457.2
318.16 K | 952.061 | 1456.4
318.41 K | 951.897 | 1455.6
318.66 K | 951.733 | 1454.9
318.91 K | 951.57 | 1454.1
319.16 K | 951.406 | 1453.3
319.41 K | 951.243 | 1452.5
319.66 K | 951.078 | 1451.7
319.91 K | 950.913 | 1451
320.16 K | 950.75 | 1450.2
320.41 K | 950.587 | 1449.4
320.66 K | 950.422 | 1448.6
320.91 K | 950.258 | 1447.8
321.16 K | 950.094 | 1447.1
321.41 K | 949.931 | 1446.3
321.66 K | 949.766 | 1445.5
321.91 K | 949.603 | 1444.7
322.16 K | 949.437 | 1444
322.41 K | 949.275 | 1443.2
322.65 K | 949.109 | 1442.4
322.91 K | 948.946 | 1441.6
323.16 K | 948.781 | 1440.8
323.41 K | 948.617 | 1440.1
323.66 K | 948.452 | 1439.3
323.91 K | 948.289 | 1438.5
324.16 K | 948.125 | 1437.8
324.41 K | 947.96 | 1437
324.66 K | 947.796 | 1436.2
324.9 K | 947.631 | 1435.4
325.16 K | 947.466 | 1434.7
325.41 K | 947.302 | 1433.9
325.66 K | 947.136 | 1433.2
325.91 K | 946.972 | 1432.4
326.16 K | 946.806 | 1431.6
326.41 K | 946.644 | 1430.8
326.66 K | 946.479 | 1430.1
326.91 K | 946.315 | 1429.3
327.16 K | 946.149 | 1428.5
327.41 K | 945.984 | 1427.8
327.66 K | 945.82 | 1427
327.91 K | 945.656 | 1426.2
328.16 K | 945.489 | 1425.5
328.41 K | 945.323 | 1424.7
328.66 K | 945.159 | 1423.9
328.91 K | 944.994 | 1423.2
329.16 K | 944.829 | 1422.4
329.41 K | 944.663 | 1421.6
329.66 K | 944.498 | 1420.8
329.91 K | 944.332 | 1420.1
330.16 K | 944.168 | 1419.3
330.41 K | 944.002 | 1418.5
330.66 K | 943.835 | 1417.8
330.91 K | 943.671 | 1417
331.16 K | 943.506 | 1416.3
331.4 K | 943.341 | 1415.5
331.66 K | 943.175 | 1414.7
331.91 K | 943.009 | 1414
332.16 K | 942.844 | 1413.2
332.41 K | 942.679 | 1412.5
332.66 K | 942.512 | 1411.7
332.91 K | 942.347 | 1410.9
333.16 K | 942.18 | 1410.2
333.41 K | 942.013 | 1409.4
333.66 K | 941.847 | 1408.7
333.91 K | 941.682 | 1407.9
334.16 K | 941.516 | 1407.2
334.41 K | 941.349 | 1406.4
334.66 K | 941.183 | 1405.6
334.91 K | 941.018 | 1404.9
335.16 K | 940.851 | 1404.1
335.41 K | 940.685 | 1403.4
335.66 K | 940.519 | 1402.6
335.91 K | 940.352 | 1401.8
336.16 K | 940.185 | 1401.1
336.41 K | 940.019 | 1400.3
336.66 K | 939.852 | 1399.6
336.91 K | 939.686 | 1398.8
337.16 K | 939.519 | 1398
337.4 K | 939.352 | 1397.3
337.66 K | 939.185 | 1396.5
337.91 K | 939.017 | 1395.8
338.16 K | 938.852 | 1395
338.41 K | 938.684 | 1394.3
338.66 K | 938.517 | 1393.5
338.91 K | 938.351 | 1392.8
339.16 K | 938.182 | 1392
339.41 K | 938.014 | 1391.2
339.66 K | 937.846 | 1390.5
339.91 K | 937.68 | 1389.7
340.15 K | 937.513 | 1389
340.41 K | 937.345 | 1388.2
340.66 K | 937.177 | 1387.5
340.91 K | 937.009 | 1386.7
341.16 K | 936.844 | 1386
341.41 K | 936.674 | 1385.2
341.65 K | 936.507 | 1384.5
341.91 K | 936.339 | 1383.8
342.16 K | 936.171 | 1383
342.41 K | 936.003 | 1382.3
342.66 K | 935.836 | 1381.5
342.9 K | 935.668 | 1380.8
343.15 K | 935.491 | 1380.1

Conditions | viscosity [mPa·s]
Liquid | 37.2
Liquid crystal of unknown type | 37.2
